Remaining activity data for 30 compounds are collected here from article PMC8286840, “Identifying SARS-CoV-2 antiviral compounds by screening for small molecule inhibitors of Nsp3 papain-like protease” (Biochemical Journal, 2021).

Counter-ions that a name gives are not always drawn. Like-named read-outs stand apart in the source and are kept apart here. Where a SMILES comes first, the peptide text is derived from it. Bridges are numbered along the chain shown (N, C = ends). [ ]: non-standard residue; d: D form. The star is where a group is joined. NMePhe(4-NMe2) = CN[C@@H](Cc1ccc(N(C)C)cc1)C(=O)O; Pip(4-oxo) = O=C1CCN[C@H](C(=O)O)C1; Picolinoyl(3-OH) = O=C(c1ncccc1O)*; Phg = N[C@H](C(=O)O)c1ccccc1; dAbu = CC[C@@H](N)C(=O)O; PhAc = O=C(Cc1ccccc1)*

The target in test [1] is T1, SARS-CoV-2 PLpro (nsp3 1564–1878) (Severe acute respiratory syndrome coronavirus 2, UniProt P0DTD1). Kind of test: biochemical. The arrangement: FRET-quenched peptide (Pro3) cleavage by PLpro, 10 min pre-incubation, slope over 20 min, normalised to no-compound control. The note with it: high concentration screen, read-out: % of control remaining.
For test [2], the target named is T1, SARS-CoV-2 PLpro (nsp3 1564–1878). Kind of test: biochemical. Further details: FRET-quenched peptide (Pro3) cleavage by PLpro, 10 min pre-incubation, slope over 20 min, normalised to no-compound control. The note with it: low concentration screen, read-out: % of control remaining.

`CC[C@H]1NC(=O)[C@@H](NC(=O)c2ncccc2O)[C@@H](C)OC(=O)[C@H](c2ccccc2)NC(=O)[C@@H]2CC(=O)CCN2C(=O)[C@H](Cc2ccc(N(C)C)cc2)N(C)C(=O)[C@@H]2CCCN2C1=O` [Pristinamycin IA] ({Picolinoyl(3-OH)}-T[dAbu]P[NMePhe(4-NMe2)][Pip(4-oxo)][Phg]; ester 1-C): the remaining activity at 3.75 µM in test [1] (Well no.=7980) is 96.6%. Also, the remaining activity at 1.25 µM in test [2] (Well no.=7980) stood at 96.9%.
As for `CN(C)CCCO[C@@H]1[C@H]2OC(C)(C)O[C@H]2O[C@@H]1[C@H](O)CO` [Amiprilose hydrochloride], in test [1] (Well no.=207), the remaining activity at 3.75 µM is 103%. Besides, the remaining activity at 1.25 µM in test [2] (Well no.=207) was found to be 101%.
`CC(C)(Oc1ccc(C2CC2(Cl)Cl)cc1)C(=O)O` (centres unmarked) [Ciprofibrate]: the remaining activity at 3.75 µM in test [1] (Well no.=41) was 93.5%. Moreover, the remaining activity at 1.25 µM in test [2] (Well no.=41) stood at 92.6%.
As to `CC(C)=CCc1c(O)ccc(C(=O)/C=C/c2ccc(O)cc2)c1O` [Isobavachalcone], the remaining activity at 3.75 µM in test [1] (Well no.=6538) came out at 97.1%. For the same compound, the remaining activity at 1.25 µM in test [2] (Well no.=6538) stood at 102%.
In the case of `N[C@@H](CS)C(=O)O` [L-Cysteine], the remaining activity at 3.75 µM in test [1] (Well no.=7783) was determined as 109%. Besides, in test [2] (Well no.=7783), the remaining activity at 1.25 µM was determined as 107%.
In the case of `CCc1nc2c(C)nc(C)cc2n1-c1ccc(CCNC(=O)NS(=O)(=O)c2ccc(C)cc2)cc1` [Grapiprant], in test [1] (Well no.=6998), the remaining activity at 3.75 µM stood at 95.9%. Besides, the remaining activity at 1.25 µM in test [2] (Well no.=6998) was 97.1%.
Take `CCCCC/C=C\C\C=C/C=C/C=C/[C@@H](SC[C@H](N)C(=O)O)[C@@H](O)CCCC(=O)O` [Leukotriene E4]: the remaining activity at 3.75 µM in test [1] (Well no.=4433) was 99.5%. Moreover, the remaining activity at 1.25 µM in test [2] (Well no.=4433) is 99.2%.
As to `CC(C)[C@@H](CN1CC[C@@](C)(c2cccc(O)c2)[C@@H](C)C1)NC(=O)[C@H]1Cc2ccc(O)cc2CN1` [JDTic (dihydrochloride)], the remaining activity at 3.75 µM in test [1] (Well no.=7139) came to 97%. Also, in test [2] (Well no.=7139), the remaining activity at 1.25 µM amounted to 99.3%.
On to `Cc1nc2cccc(N)c2c(=O)n1C1CCC(=O)NC1=O` (centres unmarked) [Avadomide], for which, in test [1] (Well no.=6870), the remaining activity at 3.75 µM was 95.9%. The remaining activity at 1.25 µM in test [2] (Well no.=6870) worked out at 99.6%.
Consider `CN[C@@H]1C[C@H]2O[C@@](C)([C@@H]1OC)n1c3ccccc3c3c4c(c5c6ccccc6n2c5c31)C(=O)NC4` [Staurosporine, Streptomyces sp.], for which the remaining activity at 3.75 µM in test [1] (Well no.=2656) is 95%; in test [1] (Well no.=2661), 84.8%. For the same compound, the remaining activity at 1.25 µM in test [2] (Well no.=2656) was found to be 94.8%; in test [2] (Well no.=2661), 89.3%.
Regarding `O=C(O)CNC(=O)C(CS)Cc1ccccc1` (racemic) [DL-Thiorphan], the remaining activity at 3.75 µM in test [1] (Well no.=1243) came out at 104%. The remaining activity at 1.25 µM in test [2] (Well no.=1243) is 103%.
Turning to `O=C(Nc1ccc(S(=O)(=O)Nc2ccccc2Cl)c(Cl)c1)c1ccccn1` [VU 0364439], the remaining activity at 3.75 µM in test [1] (Well no.=4978) was 96.2%. Also, the remaining activity at 1.25 µM in test [2] (Well no.=4978) is 96.2%.
For the compound `COc1cc2c(cc1OC)[C@@H](c1ccccc1)CN(C)CC2` [R(-)-SCH-12679 maleate], in test [1] (Well no.=1231), the remaining activity at 3.75 µM was 104%. Besides, the remaining activity at 1.25 µM in test [2] (Well no.=1231) is 101%.
For `O=c1cc(-c2ccc(O)c(O)c2)oc2cc(O)c([C@@H]3O[C@H](CO)[C@@H](O)[C@H](O)[C@H]3O)c(O)c12` [Homoorientin], the remaining activity at 3.75 µM in test [1] (Well no.=3291) stood at 100%. For the same compound, in test [2] (Well no.=3291), the remaining activity at 1.25 µM was 95.6%.
In the case of `CCCCCCCCCCCCCCCCCCCCCC(=O)O` [Docosanoic acid], the remaining activity at 3.75 µM in test [1] (Well no.=4456) came to 99.7%. The remaining activity at 1.25 µM in test [2] (Well no.=4456) is 100%.
As for `CC(C)(C)C(=O)C(Oc1ccc(Cl)cc1)n1ccnc1` (centres unmarked) [Climbazole], the remaining activity at 3.75 µM in test [1] (Well no.=2269) worked out at 99.5%. Also, in test [2] (Well no.=2269), the remaining activity at 1.25 µM came out at 98.8%.
Consider `CNCCC=C1c2ccccc2CCc2ccccc21` [Nortriptyline hydrochloride], for which, in test [1] (Well no.=1097), the remaining activity at 3.75 µM amounted to 96.6%. The remaining activity at 1.25 µM in test [2] (Well no.=1097) was 95.3%.
For the compound `NCCCCNS(=O)(=O)c1ccc2c(Cl)cccc2c1` [N-(4-Aminobutyl)-5-chloro-2-naphthalenesulfonamide hydrochloride], the remaining activity at 3.75 µM in test [1] (Well no.=55) was determined as 106%. Besides, the remaining activity at 1.25 µM in test [2] (Well no.=55) is 104%.
As for `O=C(Nc1ccncc1)c1cc([N+](=O)[O-])ccc1Cl` [T0070907], the remaining activity at 3.75 µM in test [1] (Well no.=4833) came out at 106%. Also, in test [2] (Well no.=4833), the remaining activity at 1.25 µM was 103%.
Take `CC(C)S(=O)(=O)N[C@H]1CCOC[C@@H]1c1ccc(-c2ccc(C#N)s2)cc1` [N-{(3R,4S)-3-[4-(5-cyano-2-thienyl)phenyl]tetrahydro-2H-pyran-4-yl}-2-propanesulfonamide]: in test [1] (Well no.=6010), the remaining activity at 3.75 µM worked out at 92.7%. The remaining activity at 1.25 µM in test [2] (Well no.=6010) was 100%.
For `COc1ncc(-c2ccc3nccc(-c4ccnnc4)c3c2)cc1NS(=O)(=O)c1ccc(F)cc1F` [GSK2126458], in test [1] (Well no.=5308), the remaining activity at 3.75 µM was 94.1%. In addition, the remaining activity at 1.25 µM in test [2] (Well no.=5308) worked out at 95.7%.
On to `Nc1nc2[nH]cnc2c(=S)[nH]1` [Thioguanine], for which the remaining activity at 3.75 µM in test [1] (Well no.=4624) was 102%. Moreover, the remaining activity at 1.25 µM in test [2] (Well no.=4624) was found to be 102%.
For `c1nc2c(NC3CCCCC3)nc(Nc3ccc(N4CCOCC4)cc3)nc2[nH]1` [Reversine], the remaining activity at 3.75 µM in test [1] (Well no.=2621) was 100%. Besides, the remaining activity at 1.25 µM in test [2] (Well no.=2621) was determined as 98.6%.
With `Cc1cc(C(C)(C)C)cc(C)c1CC1=NCCN1` [Xylometazoline (hydrochloride)], the remaining activity at 3.75 µM in test [1] (Well no.=6281) came to 106%. Further, the remaining activity at 1.25 µM in test [2] (Well no.=6281) is 106%.
On to `CN(CCOc1ccc(CC2SC(=O)NC2=O)cc1)c1ccccn1` (centres unmarked) [Rosiglitazone maleate], for which the remaining activity at 3.75 µM in test [1] (Well no.=1651) is 105%. Further, the remaining activity at 1.25 µM in test [2] (Well no.=1651) came to 104%.
For the compound `CCOC(=O)CNC(=O)[C@@H]1CCCN1C(=O)Cc1ccccc1` [Noopept] (PhAc-Pro-Gly-OEt), in test [1] (Well no.=5674), the remaining activity at 3.75 µM worked out at 104%. Moreover, the remaining activity at 1.25 µM in test [2] (Well no.=5674) stood at 104%.
For the compound `CC(=O)O[C@]1(C(C)=O)CC[C@H]2[C@@H]3C=C(C)C4=CC(=O)CC[C@]4(C)[C@H]3CC[C@@]21C` [Megestrol Acetate], in test [1] (Well no.=2236), the remaining activity at 3.75 µM was determined as 93.2%. Further, the remaining activity at 1.25 µM in test [2] (Well no.=2236) is 95%.
In the case of `N[C@@H](CCC(=O)O)C(=O)N[C@@H](Cc1c[nH]c2ccccc12)C(=O)O` [Oglufanide] (H-Glu-Trp-OH), the remaining activity at 3.75 µM in test [1] (Well no.=8604) is 101%. For the same compound, the remaining activity at 1.25 µM in test [2] (Well no.=8604) was 107%.
For the compound `CCCCC[C@H](O)/C=C/C=C/C=C/[C@H](O)C/C=C\CCCC(=O)O` [8(R),15(S)-DIHETE all trans], the remaining activity at 3.75 µM in test [1] (Well no.=4377) amounted to 105%. The remaining activity at 1.25 µM in test [2] (Well no.=4377) turned out to be 102%.
As for `CC1(C)CCC(NC(=O)[C@@H](N)CCC(=O)O)CC1` [CR 2249], in test [1] (Well no.=901), the remaining activity at 3.75 µM was found to be 105%. Also, the remaining activity at 1.25 µM in test [2] (Well no.=901) worked out at 108%.
